ChEMBL document CHEMBL3739397, “Identification of an indoletriazoleamino acid conjugate as a highly effective antifungal agent” (2015)
In brackets after ≈: the same amount, converted by molar mass. Activity calls are given as the source filed them. No cut-off for these calls is given here.

Experiments:
Candida albicans [1] = assay: Antifungal activity against Candida albicans BWP17 at MIC80 after 3 days by spot assay in presence of terbinafine; type: functional, organism-based
Candida albicans [2] = assay: Antifungal activity against Candida albicans BWP17 assessed as cell wall damage measured as cell clumping at MIC80 by confocal microscopic analysis in presence of ketoconazole; type: functional, organism-based
Candida albicans [3] = assay: Antifungal activity against Candida albicans BWP17 at 1/10th of MIC80 for 3 days by spot assay in presence of ketoconazole; type: functional, organism-based
Candida albicans [4] = assay: Antifungal activity against Candida albicans BWP17 at > MIC80 compound added to secondary culture for 3 days by spot assay; type: functional, organism-based
Candida albicans [5] = assay: Antifungal activity against Candida albicans BWP17 assessed as cell shrinkage and deposition of cellular content on cell surface at 312.5 ug/ml by scanning electron microscopic analysis in presence of ketocanozole; type: functional, organism-based
Candida albicans [6] = assay: Antifungal activity against Candida albicans BWP17 at 0.6 mg/ml after 48 hrs by broth dilution method; type: functional; settings: BWP17, BWP17, 48 h
Candida albicans [7] = assay: Antifungal activity against Candida albicans BWP17 assessed as necrotic cells at 312.5 ug/ml incubated for overnight by PI staining based microscopic analysis in presence of ketoconazole; type: functional, organism-based
Candida albicans [8] = assay: Antifungal activity against Candida albicans BWP17 at MIC80 after 2 days by spot assay in presence of terbinafine; type: functional, organism-based
Candida albicans [9] = assay: Antifungal activity against Candida albicans BWP17 at 62.5 ug/ml for 3 days by spot assay in presence of terbinafine; type: functional, organism-based
Candida albicans [10] = assay: Antifungal activity against Candida albicans BWP17 at 0.3 mg/ml after 48 hrs by broth dilution method; type: functional; settings: BWP17, BWP17, 48 h
Candida albicans [11] = assay: Antifungal activity against Candida albicans BWP17 at MIC80 for 3 days by spot assay in presence of ketoconazole; type: functional, organism-based
Candida albicans [12] = assay: Antifungal activity against Candida albicans BWP17 at MIC80 for 3 days by spot assay; type: functional, organism-based
Candida albicans [13] = assay: Antifungal activity against Candida albicans BWP17 assessed as increase in chitin level at MIC80 by CFW staining based microscopic analysis in presence of ketoconazole; type: functional, organism-based
Candida albicans [14] = assay: Antifungal activity against Candida albicans BWP17 at 0.16 mg/ml after 48 hrs by broth dilution method; type: functional; settings: BWP17, BWP17, 48 h
Candida albicans [15] = assay: Antifungal activity against Candida albicans BWP17 assessed as zone of inhibition at 0.5 mg/ml for 48 hrs by disk diffusion method (reference value: 0.6 cm); type: functional
Candida albicans [16] = assay: Antifungal activity against Candida albicans BWP17 at 1.25 mg/ml after 48 hrs by broth dilution method; type: functional; settings: BWP17, BWP17, 48 h
Candida albicans [17] = assay: Antifungal activity against Candida albicans BWP17 assessed as increase in chitin level at 1/10th of MIC80 by spot assay in presence of CFW; type: functional, organism-based
Candida albicans [18] = assay: Antifungal activity against Candida albicans BWP17 assessed as zone of inhibition at 2 mg/ml for 48 hrs by disk diffusion method (reference value: 0.6 cm); type: functional
Candida albicans [19] = assay: Antifungal activity against Candida albicans BWP17 assessed as cell wall damage measured as cell clumping at MIC80 by confocal microscopic analysis; type: functional, organism-based
Candida albicans [20] = assay: Antifungal activity against Candida albicans BWP17 assessed as cell shrinkage and deposition of cellular content on cell surface at < MIC80 by scanning electron microscopic analysis; type: functional, organism-based
Candida albicans [21] = assay: Antifungal activity against Candida albicans BWP17 assessed as cell shrinkage and deposition of cellular content on cell surface at 312.5 ug/ml by scanning electron microscopic analysis; type: functional, organism-based
Candida albicans [22] = assay: Antifungal activity against Candida albicans BWP17 assessed as increase in chitin level at MIC80 by CFW staining based microscopic analysis; type: functional, organism-based
Candida albicans [23] = assay: Antifungal activity against Candida albicans BWP17 assessed as necrotic cells incubated for overnight by PI staining based microscopic analysis; type: functional, organism-based
Candida albicans [24] = assay: Antifungal activity against Candida albicans BWP17 at 0.08 mg/ml after 48 hrs by broth dilution method; type: functional; settings: BWP17, BWP17, 48 h
Candida albicans [25] = assay: Antifungal activity against Candida albicans BWP17 after 48 hrs by broth dilution method; type: functional; settings: BWP17, 48 h
Candida albicans [26] = assay: Antifungal activity against Candida albicans BWP17 assessed as zone of inhibition at 1 mg/ml for 48 hrs by disk diffusion method (reference value: 0.6 cm); type: functional
Candida albicans [27] = assay: Antifungal activity against Candida albicans BWP17 at 400 ug/ml after 48 hrs by spot assay; type: functional, organism-based
Candida albicans [28] = assay: Antifungal activity against Candida albicans BWP17 assessed as mild growth inhibition at 400 ug/ml after 24 hrs by spot assay; type: functional, organism-based
Candida albicans [29] = assay: Antifungal activity against Candida albicans BWP17 at 1/10th of MIC80 for 3 days by spot assay; type: functional, organism-based
Candida albicans [30] = assay: Antifungal activity against Candida albicans BWP17 at 0.04 mg/ml after 48 hrs by broth dilution method; type: functional; settings: BWP17, BWP17, 48 h
Candida albicans [31] = assay: Antifungal activity against Candida albicans BWP17 assessed as necrotic cells at […] incubated for overnight by PI staining based microscopic analysis; type: functional, organism-based

## O=C(O)CC[C@H](NC(=O)C(=O)c1cn(Cc2cn(-c3ccccc3)nn2)c2ccccc12)C(=O)O
Candida albicans [1]
  Activity: Active
Candida albicans [2]
  Activity: Active
Candida albicans [3]
  Activity: Active
Candida albicans [4]
  Activity: Active
Candida albicans [5]
  Activity: Active
Candida albicans [6]
  inhibition at 600 µg/mL: 84%
Candida albicans [7]
  Activity: Active
Candida albicans [8]
  Activity: Active
Candida albicans [9]
  Activity: inactive
Candida albicans [10]
  inhibition at 300 µg/mL: 81%
Candida albicans [11]
  Activity: Active
Candida albicans [12]
  Activity: Active
Candida albicans [13]
  Activity: Active
Candida albicans [14]
  inhibition at 160 µg/mL: 33%
Candida albicans [15]
  Activity: 0.8 cm
Candida albicans [16]
  inhibition at 1250 µg/mL: 84%
Candida albicans [17]
  Activity: Active
Candida albicans [18]
  Activity: 2.5 cm
Candida albicans [19]
  Activity: Active
Candida albicans [20]
  Activity: Active
Candida albicans [21]
  Activity: Active
Candida albicans [22]
  Activity: Active
Candida albicans [23]
  Activity: Active
Candida albicans [24]
  inhibition at 80 µg/mL: 18%
Candida albicans [25]
  MIC80: 312 µg/mL (≈ 657 µM)
Candida albicans [26]
  Activity: 1.2 cm
Candida albicans [27]
  Activity: inactive
Candida albicans [28]
  Activity: Active
Candida albicans [29]
  Activity: Active
Candida albicans [30]
  inhibition at 40 µg/mL: 6%

## CN(C/C=C/C#CC(C)(C)C)Cc1cccc2ccccc12
Candida albicans [12]
  Activity: Active

## CC(=O)N1CCN(c2ccc(OCC3COC(Cn4ccnc4)(c4ccc(Cl)cc4Cl)O3)cc2)CC1 (stereo not given)
Candida albicans [31]
  Activity: Active
Candida albicans [12]
  Activity: Active
Candida albicans [19]
  Activity: Active
Candida albicans [29]
  Activity: Active
